For 20 compounds, TGI results are on record in PubChem BioAssay (NCI).

The structures appear in SMILES notation.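 Where inhibition never reached the appropriate level, the endpoint shown equals the highest concentration tested. Otherwise, values were interpolated linearly from a five-concentration, 48-hour dose response in 96-well plates. TGI: total growth inhibition.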

Among the test systems are DU-145 prostate; HCC-2998 colon; HL-60(TB) leukemia; HOP-62 NSCLC; KM12 colon; LOX IMVI melanoma; MOLT-4 leukemia; NCI-H460 lung; OVCAR-3 ovarian; U251 CNS.
Common to all, as to experiment: NCI-60 cell line screen, 48 h

On to `Cc1nc(N)c(N2CCN(C(=O)O)CC2)c(=O)[nH]1`, for which the TGI with DU-145 prostate, with HCC-2998 colon, with HL-60(TB) leukemia, in the assay on HOP-62 NSCLC, with KM12 colon and with LOX IMVI melanoma was more than 100 µM each time. Further, the TGI with MOLT-4 leukemia, with NCI-H460 lung, with OVCAR-3 ovarian and in the assay with U251 CNS was more than 100 µM each time.

With `CC#CC(O)(C(=O)OCCCN(C)C)C1CCCCC1` (stereo unspecified), the TGI in the assay with DU-145 prostate, in the assay with HCC-2998 colon, in the assay on HL-60(TB) leukemia, with HOP-62 NSCLC, with KM12 colon and in the assay on LOX IMVI melanoma was more than 100 µM each time. The TGI with MOLT-4 leukemia, with NCI-H460 lung, in the assay on OVCAR-3 ovarian and in the assay with U251 CNS was more than 100 µM throughout.

Turning to `CCOc1cc(C2SCC(=O)N2c2ccc(Oc3ccc(Cl)cc3)c(Cl)c2)ccc1O` (stereo unspecified), the TGI was found to be 31.3 µM in the assay with DU-145 prostate; 35.8 µM in the assay on HCC-2998 colon; 47 µM with HL-60(TB) leukemia; 40.8 µM in the assay with HOP-62 NSCLC; 31.8 µM with KM12 colon; 38.7 µM in the assay on LOX IMVI melanoma. Moreover, the TGI in the assay on MOLT-4 leukemia came to 64.4 µM; with NCI-H460 lung, 39.1 µM; with OVCAR-3 ovarian, 30.6 µM; in the assay with U251 CNS, 35.7 µM.

With `CCCCNC(=O)c1cc2c(cc1Cl)Sc1nccn1S2(=O)=O`, the TGI in the assay with DU-145 prostate, in the assay on HCC-2998 colon, in the assay on HL-60(TB) leukemia, with HOP-62 NSCLC, with KM12 colon and with LOX IMVI melanoma was more than 100 µM each time. The TGI in the assay on MOLT-4 leukemia, in the assay on NCI-H460 lung, in the assay on OVCAR-3 ovarian and in the assay on U251 CNS was more than 100 µM throughout.

With `Cc1cc(C)n(CC(Cn2nc(C)cc2C)=C(/C(Cl)=C(/Cl)Nc2ccc([N+](=O)[O-])cc2)[N+](=O)[O-])n1`, the TGI with DU-145 prostate stood at 14 µM; with HCC-2998 colon, 11.7 µM; in the assay with HL-60(TB) leukemia, 4.3 µM; with HOP-62 NSCLC it was 22.2 µM; in the assay with KM12 colon, 6.55 µM; in the assay with LOX IMVI melanoma it was 6.06 µM. The TGI was 4.77 µM in the assay with MOLT-4 leukemia, 10.9 µM with NCI-H460 lung, 15.2 µM in the assay with OVCAR-3 ovarian and 13.5 µM in the assay on U251 CNS.

`O=C1CSC(/C=C/c2ccccc2)N1c1nc2cc3sc(N4C(=O)CSC4/C=C/c4ccccc4)nc3cc2s1` (stereo unspecified): the TGI in the assay with DU-145 prostate, with HCC-2998 colon, in the assay on HL-60(TB) leukemia, in the assay with HOP-62 NSCLC, in the assay on KM12 colon and in the assay on LOX IMVI melanoma was more than 100 µM throughout. Also, the TGI in the assay on MOLT-4 leukemia, in the assay with NCI-H460 lung, with OVCAR-3 ovarian and in the assay on U251 CNS was more than 100 µM each time.

`COC(=O)/C(C#N)=C(\Nc1ccccc1)N1CCOCC1`: the TGI in the assay on DU-145 prostate, in the assay on HCC-2998 colon, in the assay with HL-60(TB) leukemia, in the assay on HOP-62 NSCLC, in the assay with LOX IMVI melanoma and with MOLT-4 leukemia was more than 100 µM in each case. In addition, the TGI with NCI-H460 lung, in the assay on OVCAR-3 ovarian and in the assay on U251 CNS was more than 100 µM each time.

On to `NC(Cc1ccc(OCc2ccccc2)cn1)C(=O)O` (stereo unspecified), for which the TGI with DU-145 prostate, with HCC-2998 colon, in the assay on HL-60(TB) leukemia, with HOP-62 NSCLC, in the assay on KM12 colon and with LOX IMVI melanoma was more than 100 µM throughout. For the same compound, the TGI with MOLT-4 leukemia, in the assay on NCI-H460 lung, in the assay with OVCAR-3 ovarian and in the assay on U251 CNS was more than 100 µM throughout.

As to `Cc1ccn2c(=O)cc(CN3CCOCC3)nc2c1`, the TGI with DU-145 prostate, in the assay with HCC-2998 colon, in the assay with HL-60(TB) leukemia, in the assay with HOP-62 NSCLC, in the assay on KM12 colon and with LOX IMVI melanoma was more than 100 µM in each case. In addition, the TGI in the assay with MOLT-4 leukemia, with NCI-H460 lung, in the assay with OVCAR-3 ovarian and in the assay on U251 CNS was more than 100 µM in each case.

On to `CC[C@H](C)[C@H]1NC(=O)[C@@H](NC(=O)[C@@H](CC(C)C)N(C)C(=O)C2CCCN2C(=O)[C@H](C)O)[C@@H](C)OC(=O)[C@H](Cc2ccc(OC)cc2)N(C)C(=O)[C@@H]2CCCN2C(=O)[C@H](CCCCNC(=O)OCc2ccccc2)NC(=O)[C@H](C)C(=O)[C@H](C(C)C)OC(=O)C[C@@H]1O` (stereo partly specified), for which the TGI with DU-145 prostate is more than 25 µM; in the assay with HCC-2998 colon, 9.79 µM; in the assay on HL-60(TB) leukemia it was more than 25 µM; in the assay with HOP-62 NSCLC, more than 25 µM; with KM12 colon, 19.4 µM; in the assay with LOX IMVI melanoma, more than 25 µM. Further, the TGI in the assay with MOLT-4 leukemia was more than 25 µM; in the assay with NCI-H460 lung it was more than 25 µM; with OVCAR-3 ovarian, 24.8 µM; in the assay on U251 CNS, 17.6 µM.

In the case of `O=C(O)CN1C=C(C(=O)c2cc3ccccc3n2S(=O)(=O)c2ccccc2)CCC1`, the TGI in the assay on DU-145 prostate was more than 100 µM; in the assay with HCC-2998 colon, more than 100 µM; in the assay on HL-60(TB) leukemia, 71.5 µM; in the assay on HOP-62 NSCLC it was more than 100 µM; with KM12 colon, more than 100 µM; in the assay with LOX IMVI melanoma, more than 100 µM. Besides, the TGI in the assay with MOLT-4 leukemia, with NCI-H460 lung, in the assay with OVCAR-3 ovarian and with U251 CNS was more than 100 µM throughout.

For `C=C1C(=O)O[C@H]2C/C(C)=C/CC[C@@]3(C)O[C@](C)(CC[C@@H]3I)[C@@H](I)C[C@@H]12`, the TGI in the assay on DU-145 prostate worked out at 11.8 µM; in the assay on HCC-2998 colon, 10.8 µM; in the assay on HL-60(TB) leukemia, 20.2 µM; with HOP-62 NSCLC it was 15.6 µM; in the assay on KM12 colon, 18.5 µM; with LOX IMVI melanoma, 6.34 µM. The TGI stood at 13.6 µM in the assay with MOLT-4 leukemia, 13.2 µM in the assay on NCI-H460 lung, 8.63 µM in the assay on OVCAR-3 ovarian and 11.7 µM in the assay on U251 CNS.

As for `O=c1[nH]c(Cc2ccccc2)nc2c1sc1nc3ccccc3n12`, the TGI in the assay on DU-145 prostate, in the assay on HCC-2998 colon, with HL-60(TB) leukemia, with KM12 colon, in the assay on LOX IMVI melanoma and with MOLT-4 leukemia was more than 100 µM in each case. The TGI in the assay on NCI-H460 lung, with OVCAR-3 ovarian and in the assay with U251 CNS was more than 100 µM throughout.

On to `C=C=C(CC1CCCCC1=O)S(=O)(=O)c1ccccc1` (stereo unspecified), for which the TGI is more than 10 µM in the assay with DU-145 prostate; more than 10 µM in the assay on HCC-2998 colon; 2.5 µM in the assay with HL-60(TB) leukemia; more than 10 µM in the assay on HOP-62 NSCLC; more than 10 µM in the assay with LOX IMVI melanoma; 3.06 µM with MOLT-4 leukemia. The TGI in the assay with NCI-H460 lung, in the assay on OVCAR-3 ovarian and in the assay on U251 CNS was more than 10 µM throughout.

Turning to `CCc1ccccc1N=NC(=O)NNc1ccccc1CC`, the TGI in the assay with DU-145 prostate turned out to be 33.6 µM; in the assay with HCC-2998 colon it was 29.9 µM; in the assay with HL-60(TB) leukemia it was 56.9 µM; with HOP-62 NSCLC, 29.4 µM; with LOX IMVI melanoma, 33.7 µM; in the assay with MOLT-4 leukemia, 50.1 µM. Besides, the TGI with NCI-H460 lung is 34.5 µM; in the assay with OVCAR-3 ovarian, 33.2 µM; in the assay on U251 CNS, 29.6 µM.

In the case of `COc1ccccc1NC(=S)N/N=C/c1c(C)n(C)n(-c2ccccc2)c1=O`, the TGI in the assay with DU-145 prostate, in the assay with HCC-2998 colon, in the assay on HL-60(TB) leukemia, in the assay with HOP-62 NSCLC, in the assay on KM12 colon and in the assay on LOX IMVI melanoma was more than 100 µM in each case. Also, the TGI in the assay with MOLT-4 leukemia, in the assay with NCI-H460 lung and in the assay on U251 CNS was more than 100 µM in each case.

For `OC(c1ccc(F)cc1)C(F)(F)c1nc2ccccc2o1` (stereo unspecified), the TGI in the assay on DU-145 prostate, in the assay on HCC-2998 colon, with HL-60(TB) leukemia, in the assay on HOP-62 NSCLC, in the assay with KM12 colon and in the assay on LOX IMVI melanoma was more than 100 µM each time. Moreover, the TGI in the assay with MOLT-4 leukemia, with NCI-H460 lung and with U251 CNS was more than 100 µM throughout.

For the compound `Cc1cn([C@@H]2C[C@@H]2CO)c(=O)[nH]c1=O`, the TGI with DU-145 prostate, in the assay on HCC-2998 colon, in the assay on HL-60(TB) leukemia, in the assay with HOP-62 NSCLC, in the assay on KM12 colon and in the assay on LOX IMVI melanoma was more than 100 µM each time. In addition, the TGI in the assay on MOLT-4 leukemia, with NCI-H460 lung and in the assay on U251 CNS was more than 100 µM throughout.

Consider `CC(=O)O[C@H]1C(=O)[C@@]2(C)[C@H]([C@H](OC(=O)c3cccc([N+](=O)[O-])c3)[C@]3(O)C[C@H](OC(=O)[C@H](O)[C@@H](NC(=O)c4ccccc4)c4ccccc4)C(C)=C1C3(C)C)[C@]1(OC(C)=O)CO[C@@H]1C[C@@H]2O`, for which the TGI was more than 25 µM in the assay on DU-145 prostate; more than 25 µM with HCC-2998 colon; less than 0.0025 µM in the assay with HL-60(TB) leukemia; more than 25 µM with HOP-62 NSCLC; more than 25 µM with KM12 colon; more than 25 µM in the assay with LOX IMVI melanoma. Moreover, the TGI was more than 20.3 µM with MOLT-4 leukemia, more than 25 µM in the assay on NCI-H460 lung and 0.0183 µM in the assay with OVCAR-3 ovarian.

Consider `CCOC(=O)c1c(N)n(-c2ccccc2)c(=O)n(-c2ccccc2)c1=O`, for which the TGI with DU-145 prostate, in the assay on HCC-2998 colon, in the assay on HL-60(TB) leukemia, in the assay with KM12 colon, in the assay with LOX IMVI melanoma and in the assay on MOLT-4 leukemia was more than 100 µM in each case. Besides, the TGI in the assay on NCI-H460 lung, in the assay with OVCAR-3 ovarian and in the assay with U251 CNS was more than 100 µM each time.
